The values that follow come from US9133194B2, “Cyclic tripeptide mimetics as plasmin inhibitors” (priority 2011, dated 2015).

One data set concerns the target plasma kallikrein (Homo sapiens, UniProt P03952). The data set is described as follows: Enzyme-kinetic determination of inhibition constants, plasma kallikrein (Haemochrom PK). Particulars: Tris-HCl buffer pH 8.0, Dixon, mean of at least two determinations. The class given is biochemical. The source says:
(§1) The Ki values are the mean value of at least two determinations.

Another data set concerns the target Thrombin (bovine) (Bos taurus, UniProt P00735). The data set is described as follows: Enzyme-kinetic determination of inhibition constants, thrombin (Pefachrome tPA). In kind it is biochemical. To be noted: Tris-HCl buffer pH 8.0, Dixon, mean of at least two determinations.
Text: as §1

The target of another data set is Factor Xa (human) (Homo sapiens, UniProt P00742). The data set can be described thus: Enzyme-kinetic determination of inhibition constants, factor Xa (Pefachrome FXa). The class given is biochemical. To be noted: Tris-HCl buffer pH 8.0, Dixon, mean of at least two determinations.
Chain of Factor Xa (human) (P00742 235-488 limits assumed): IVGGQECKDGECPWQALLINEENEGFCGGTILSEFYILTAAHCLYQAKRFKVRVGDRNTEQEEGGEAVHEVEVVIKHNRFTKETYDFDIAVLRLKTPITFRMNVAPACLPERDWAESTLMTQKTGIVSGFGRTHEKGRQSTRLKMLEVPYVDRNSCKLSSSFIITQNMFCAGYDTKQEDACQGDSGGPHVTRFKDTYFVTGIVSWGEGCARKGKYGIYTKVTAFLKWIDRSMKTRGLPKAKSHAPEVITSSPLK
Chain of Factor Xa (human) (P00742 41-179 partner limits assumed): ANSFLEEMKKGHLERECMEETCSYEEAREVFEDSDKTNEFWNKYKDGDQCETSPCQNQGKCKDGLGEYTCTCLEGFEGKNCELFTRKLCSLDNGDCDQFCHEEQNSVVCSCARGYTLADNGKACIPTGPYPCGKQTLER
Text: as §1

For another data set, the target named is plasmin (Homo sapiens, UniProt P00747). The data set is described as follows: Enzyme-kinetic determination of inhibition constants, plasmin (Chromozym PL). In kind it is biochemical.
Chain of plasmin (P00747 581-810 limits assumed): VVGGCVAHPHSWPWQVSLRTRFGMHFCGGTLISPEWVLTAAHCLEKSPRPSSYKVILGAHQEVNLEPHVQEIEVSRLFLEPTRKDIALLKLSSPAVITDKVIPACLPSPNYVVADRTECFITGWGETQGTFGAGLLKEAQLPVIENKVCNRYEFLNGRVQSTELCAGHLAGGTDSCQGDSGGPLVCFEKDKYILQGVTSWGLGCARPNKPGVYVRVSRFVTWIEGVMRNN
Chain of plasmin (P00747 97-580 partner limits assumed): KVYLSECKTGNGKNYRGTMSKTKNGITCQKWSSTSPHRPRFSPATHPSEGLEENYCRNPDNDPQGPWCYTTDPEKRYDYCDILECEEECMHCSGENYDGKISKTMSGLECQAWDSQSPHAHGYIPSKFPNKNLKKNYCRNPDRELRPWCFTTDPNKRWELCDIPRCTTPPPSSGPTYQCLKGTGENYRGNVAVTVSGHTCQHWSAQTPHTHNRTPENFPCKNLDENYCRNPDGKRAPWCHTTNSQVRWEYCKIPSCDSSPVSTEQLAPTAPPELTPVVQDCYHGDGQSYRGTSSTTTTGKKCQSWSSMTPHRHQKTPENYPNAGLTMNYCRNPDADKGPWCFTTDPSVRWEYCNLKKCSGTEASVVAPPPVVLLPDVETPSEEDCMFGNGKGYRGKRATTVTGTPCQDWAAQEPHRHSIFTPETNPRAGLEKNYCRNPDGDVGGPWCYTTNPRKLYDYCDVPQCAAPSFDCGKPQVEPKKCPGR
Text: as §1

A further data set deals with trypsin. To be noted: background, aprotinin; read-out: K for trypsin; cited from earlier work.
For data set [1] the following is noted: cited from earlier work.
Where [2] appears, read: Tris-HCl buffer pH 8.0, Dixon, mean of at least two determinations, read-out: Ki Plasmin.

Like-named read-outs stand apart in the source and are kept apart here.

Chain of plasma kallikrein (P03952 391-638 limits assumed): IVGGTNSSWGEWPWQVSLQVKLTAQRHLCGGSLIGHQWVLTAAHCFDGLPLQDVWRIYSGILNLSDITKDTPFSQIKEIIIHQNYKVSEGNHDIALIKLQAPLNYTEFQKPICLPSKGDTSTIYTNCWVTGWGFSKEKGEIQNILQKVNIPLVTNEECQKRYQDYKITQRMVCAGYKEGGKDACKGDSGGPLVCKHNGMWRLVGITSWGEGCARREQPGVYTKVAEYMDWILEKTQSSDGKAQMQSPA
Chain of plasma kallikrein (P03952 20-390 partner limits assumed): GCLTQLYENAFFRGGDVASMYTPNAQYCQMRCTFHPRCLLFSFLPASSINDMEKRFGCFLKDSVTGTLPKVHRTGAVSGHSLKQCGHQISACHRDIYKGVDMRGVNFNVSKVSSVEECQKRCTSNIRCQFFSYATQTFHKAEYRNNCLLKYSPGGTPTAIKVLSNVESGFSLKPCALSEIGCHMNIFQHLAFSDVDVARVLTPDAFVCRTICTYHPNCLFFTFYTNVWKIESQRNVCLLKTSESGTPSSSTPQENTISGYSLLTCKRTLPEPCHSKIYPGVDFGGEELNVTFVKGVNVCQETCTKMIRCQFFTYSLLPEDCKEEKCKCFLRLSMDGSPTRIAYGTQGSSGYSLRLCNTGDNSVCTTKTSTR

As for `N=C(N)c1ccc(CNC(=O)[C@@H]2Cc3ccc(cc3)NC(=O)CCN3CCN(CCC(=O)Nc4ccc(cc4)C[C@@H](NS(=O)(=O)NC4CCCCC4)C(=O)N2)CC3)cc1` [Inhibitor 1], the Ki at plasma kallikrein was found to be 0.6 µM; at Thrombin (bovine) it was 17 µM; at Factor Xa (human) it was 7.4 µM; on plasmin it was 0.052 nM.

On to `N=C(N)c1ccc(CNC(=O)[C@@H]2Cc3ccc(cc3)NC(=O)CN3CCN(CC3)CC(=O)Nc3ccc(cc3)C[C@@H](NS(=O)(=O)NC3CCCCC3)C(=O)N2)cc1` [Inhibitor 2], for which the Ki on plasma kallikrein came out at 0.319 µM; on Thrombin (bovine) it was 16 µM; on Factor Xa (human), 7.9 µM; at plasmin, 0.32 nM.

Turning to `NCc1ccc(CNC(=O)[C@@H]2Cc3ccc(cc3)NC(=O)CCN3CCN(CCC(=O)Nc4ccc(cc4)C[C@@H](NS(=O)(=O)Cc4ccccc4)C(=O)N2)CC3)cc1` [Inhibitor 3], the Ki on plasma kallikrein was found to be 6.38 µM; at Thrombin (bovine), 141 µM; on Factor Xa (human), 78 µM; at plasmin it was 1.24 nM.

For the compound `N=C(N)c1ccc(CNC(=O)[C@@H]2Cc3ccc(cc3)NC(=O)CCN3CCN(CCC(=O)Nc4ccc(cc4)C[C@@H](NC(=O)Cc4ccccc4)C(=O)N2)CC3)cc1` [Inhibitor 4], the Ki on plasma kallikrein came to 7.92 µM; at Thrombin (bovine), 41.8 µM; at Factor Xa (human) it was 188 µM; on plasmin (setting [2]), 8 nM.

Regarding `N=C(N)c1ccc(CNC(=O)[C@@H]2Cc3ccc(cc3)NC(=O)CCN3CCN(CCC(=O)Nc4ccc(cc4)C[C@@H](NC(=O)OCc4ccccc4)C(=O)N2)CC3)cc1` [Inhibitor 5], the Ki at plasma kallikrein turned out to be 6.95 µM; on Thrombin (bovine), 44 µM; on Factor Xa (human), 47.4 µM; at plasmin (setting [2]) it was 0.77 nM.

In the case of `N=C(N)c1ccc(CNC(=O)[C@@H]2Cc3ccc(cc3)NC(=O)CCN3CCN(CCC(=O)Nc4ccc(cc4)C[C@@H](N)C(=O)N2)CC3)cc1` [Inhibitor 6], the Ki worked out at 24.5 µM on plasma kallikrein, 60.8 µM at Thrombin (bovine), 405 µM on Factor Xa (human) and 12.8 nM at plasmin.

As to `CC1(C)C(=O)Nc2ccc(cc2)C[C@@H](C(=O)NCc2ccc(C(=N)N)cc2)NC(=O)[C@H](NS(=O)(=O)Cc2ccccc2)Cc2ccc(cc2)NC(=O)C(C)(C)N2CCN1CC2` [Inhibitor 7], the Ki on plasma kallikrein came to 0.077 µM; on Thrombin (bovine), 0.62 µM; on Factor Xa (human) it was 1.45 µM; on plasmin (setting [2]), 2.2 nM.

`N=C(N)c1ccc(CNC(=O)[C@@H]2Cc3ccc(cc3)NC(=O)CN3CCN(CC3)CC(=O)Nc3ccc(cc3)C[C@@H](NC(=O)OCc3ccccc3)C(=O)N2)cc1` [Inhibitor 11]: the Ki at plasma kallikrein came out at 4.64 µM; at Thrombin (bovine) it was 46.9 µM; on Factor Xa (human), 104 µM; at plasmin (setting [2]), 5.4 nM.

In the case of `N=C(N)NCCCCNC(=O)[C@@H]1Cc2ccc(cc2)NC(=O)CCN2CCN(CCC(=O)Nc3ccc(cc3)C[C@@H](NS(=O)(=O)NC3CCCCC3)C(=O)N1)CC2` [Inhibitor 13], the Ki at plasmin (setting [2]) was determined as 3.5 nM.

On to `CN(C)S(=O)(=O)N[C@@H]1Cc2ccc(cc2)NC(=O)CN2CCN(CC2)CC(=O)Nc2ccc(cc2)C[C@@H](C(=O)NCc2ccc(C(=N)N)cc2)NC1=O` [Inhibitor 14], for which the Ki on plasma kallikrein worked out at 12 µM; on Thrombin (bovine), 4.96 µM; on Factor Xa (human), 134 µM; at plasmin it was 5.9 nM.

Consider aprotinin, for which the Ki at trypsin is 0.0001 µM. The “risk of an anaphylactic shock” value is listed as under 0.1% in data set [1] (aprotinin applied for the first time) and 4-5% in data set [1] (repeated administration within 200 days). In addition, the “risk of myocardial infarction and apoplectic stroke” value in data set [1] (compared to the control groups) was “increased”. For the same compound, in data set [1] (comparison with ε-aminocaproic acid or tranexamic acid (Mangano et al.)), the “number of cases of kidney damage requiring subsequent dialysis” value is reported as “doubling”.
